In brackets after ≈: the same amount, converted by molar mass. Where two headings read alike, the source gives them in different places.
How the values were obtained:
[1] = system: S. aureus M133; test: MIC, agar plate dilution method; format: cell-based; conditions: Staphylococcus aureus, 37° C., 20 hours, read-out: Antimicrobial activity (MIC)
Experimental: (§1) Antimicrobial activities of the compounds of the present invention were determined by measuring minimum inhibitory concentration (MIC). Minimum inhibitory concentration was determined by the agar plate dilution method in the following manner.
(§2) Test strains were subjected to seed culture using Sensitivity test broth (STB, Nissui Pharmaceutical) except that the strains belonging to the genus Streptococcus, Branhamella and Haemophilus were cultured on blood agar plate. A 5 μl portion of cell suspension of the test strains having about 10^6 CFU/ml was inoculated into Sensitivity disk agar (SDA, Nissui Pharmaceutical) supplemented with 5% horse blood and incubated at 37° C. for 20 hours. Then, MIC was measured. For comparison, MDM and leucomycin A7 (LM-A7) was also tested.

[2] = system: S. aureus 209P JC-1; test: MIC, agar plate dilution method; format: cell-based; conditions: Staphylococcus aureus; S. aureus 209P JC-1; 37° C., 20 hours; read-out: Antimicrobial activity (MIC)
Experimental: as §1, §2

[3] = system: B. catarrhalis W-0500; test: MIC, agar plate dilution method; format: cell-based; conditions: Moraxella catarrhalis, W0500, 37° C., 20 hours, read-out: Antimicrobial activity (MIC)
Experimental: as §1, §2

[4] = system: M. pneumoniae Numata; test: MIC, agar plate dilution method; format: cell-based; conditions: Mycoplasmoides pneumoniae, 20 h, read-out: Antimicrobial activity (MIC)
Experimental: as §1, §2

[5] = system: E. faecalis W-73; test: MIC, agar plate dilution method; format: cell-based; conditions: Enterococcus faecalis, W73; E. faecalis W-73; 37° C., 20 hours; read-out: Antimicrobial activity (MIC)
Experimental: as §1, §2

[6] = system: M. luteus ATCC9341; test: MIC, agar plate dilution method; format: cell-based; conditions: Micrococcus luteus, read-out: Antimicrobial activity (MIC)
Experimental: as §1, §2

[7] = system: S. pneumoniae IP692; test: MIC, agar plate dilution method; format: cell-based; conditions: Streptococcus pneumoniae, read-out: Antimicrobial activity (MIC)
Experimental: as §1, §2

[8] = system: S. aureus M126; test: MIC, agar plate dilution method; format: cell-based; conditions: Staphylococcus aureus; S. aureus M126; 37° C., 20 hours; read-out: Antimicrobial activity (MIC)
Experimental: as §1, §2

[9] = system: M. pneumoniae FH; test: MIC, agar plate dilution method; format: cell-based; conditions: Mycoplasmoides pneumoniae, 20 h, read-out: Antimicrobial activity (MIC)
Experimental: as §1, §2

[10] = system: K. pneumoniae PC1602; test: MIC, agar plate dilution method; format: cell-based; conditions: Klebsiella pneumoniae, 37° C., 20 hours, read-out: Antimicrobial activity (MIC)
Experimental: as §1, §2

[11] = system: M. pneumoniae Mac; test: MIC, agar plate dilution method; format: cell-based; conditions: Mycoplasmoides pneumoniae, 20 h, read-out: Antimicrobial activity (MIC)
Experimental: as §1, §2

[12] = system: E. coli NIHJ JC-2; test: MIC, agar plate dilution method; format: cell-based; conditions: Escherichia coli, NIHJJC2; E. coli NIHJ JC-2; 37° C., 20 hours; read-out: Antimicrobial activity (MIC)
Experimental: as §1, §2

[13] = system: S. epidermidis ATCC14990; test: MIC, agar plate dilution method; format: cell-based; conditions: Staphylococcus epidermidis, 37° C., 20 hours, read-out: Antimicrobial activity (MIC)
Experimental: as §1, §2

[14] = system: S. aureus MS15026; test: MIC, agar plate dilution method; format: cell-based; conditions: Staphylococcus aureus, 37° C., 20 hours, read-out: Antimicrobial activity (MIC)
Experimental: as §1, §2

[15] = system: S. aureus MS15027; test: MIC, agar plate dilution method; format: cell-based; conditions: Staphylococcus aureus, 37° C., 20 hours, read-out: Antimicrobial activity (MIC)
Experimental: as §1, §2

[16] = system: S. Pyogenes Cook; test: MIC, agar plate dilution method; format: cell-based; conditions: Streptococcus pyogenes, 37° C., 20 hours, read-out: Antimicrobial activity (MIC)
Experimental: as §1, §2

[17] = system: S. Pneumoniae Type 1; test: MIC, agar plate dilution method; format: cell-based; conditions: Streptococcus pneumoniae; S. Pneumoniae Type 1; 37° C., 20 hours; read-out: Antimicrobial activity (MIC)
Experimental: as §1, §2

[18] = system: S. aureus MS15009/pMS98; test: MIC, agar plate dilution method; format: cell-based; conditions: Staphylococcus aureus, MS15009/PMS98, 20 h, read-out: Antimicrobial activity (MIC)
Experimental: as §1, §2

[19] = system: M. pneumoniae FH-P24; test: MIC, agar plate dilution method; format: cell-based; conditions: Mycoplasmoides pneumoniae, FHP24, 20 h, read-out: Antimicrobial activity (MIC)
Experimental: as §1, §2

[20] = system: H. influenzae 9334; test: MIC, agar plate dilution method; format: cell-based; conditions: Haemophilus influenzae; H. influenzae 9334; 37° C., 20 hours; read-out: Antimicrobial activity (MIC)
Experimental: as §1, §2

[21] = system: B. catarrhalis W-0506; test: MIC, agar plate dilution method; format: cell-based; conditions: Moraxella catarrhalis, W0506, 37° C., 20 hours, read-out: Antimicrobial activity (MIC)
Experimental: as §1, §2

[22] = system: S. aureus MS15009/pMS99; test: MIC, agar plate dilution method; format: cell-based; conditions: Staphylococcus aureus, MS15009/PMS99, 20 h, read-out: Antimicrobial activity (MIC)
Experimental: as §1, §2

[23] = system: Gram-positive bacteria and Mycoplasma; test: antimicrobial activity in vitro (summary in words); format: cell-based; conditions: from Table 1
Experimental: as §1, §2

[24] = metabolism in plasma; format: in vitro ADME, rat; conditions: no free hydroxyl group in the neutral sugar moiety formed
Experimental: Each test compound and 50 μl of a methanol solution (10,000 γ) were added to 950 μl of thawed rat plasma and the resulting mixture was incubated at 37° C. for 24 hours. After completion of the incubation, a 20 μl portion of the mixture was added to 980 μl of 0.05M phosphate buffer (pH 7.6). A 20 μl portion of the sample solution was used to measure antimicrobial activity against M. luteus. Separately, the calibration curve was prepared by using a methanol solution containing each test compound. The starting activity of each compound in the plasma was referred to as 100%.

[25] = system: M. luteus
Experimental: Each test compound and 50 μl of a methanol solution (10,000 γ) were added to 950 μl of thawed rat plasma and the resulting mixture was incubated at 37° C. for 24 hours. After completion of the incubation, a 20 μl portion of the mixture was added to 980 μl of 0.05M phosphate buffer (pH 7.6). A 20 μl portion of the sample solution was used to measure antimicrobial activity against M. luteus.

[26] = recovery in urine after oral administration to mice, bioassay; format: in vivo; conditions: mouse, 200 mg/kg oral (compound (3)), urine 4 and 24 hours
Experimental: Subsequently, 200 mg/kg of the compound (3) was orally administered to three mice in the same manner as described above.
The three mice were put in a metabolic cage MM type (Sugiyamagen Company, Tokyo, Japan) and urine was collected 4 and 24 hours after the administration of the test compound. The collected urine was filtered through a filter having a pore size of 0.45 μm (Millipore) and was mixed with an equivalent volume of 50% CH3CN-50 mM phosphate (1:1 by volume) buffer (pH 6.5) to serve as a urine sample. The bioassay was carried out in the same manner as described above to determine the concentration of the test compound in the urine sample. The recovering in the urine was calculated according to the following equation. [formula]

[27] = concentration in serum after oral administration to mice, bioassay; format: in vivo, mice (Jcl:ICR); conditions: mouse, serum, 200 mg/kg, M. luteus bioassay, read-out: maximum concentration in the serum
Experimental: The compound (3) was mixed with a 0.2% solution of carboxymethylcellulose to give a concentration of 4 mg/ml and a 1 ml portion of the resulting emulsion was orally administered to 4-week-old male Jcl:ICR mice. Blood was collected from armpit of the mice 30, 60, 120, 240 and 360 minutes after the administration of the test compound (n=2). The collected blood was allowed to stand at room temperature for about 2 hours and centrifuged for 20 minutes with a centrifuge (KUBOTA KS-5000P) to obtain serum. To the serum was added an equivalent volume of 50% CH3 CN-50 mM phosphate (1:1 by volume) buffer (pH 7.0). The resulting mixture served as a serum sample. The concentration of the test compound in the serum sample was measured by the following bioassay method.
One hundred […] of the serum sample was poured into a hole made on a test plate containing 40 ml of MRAPJ medium (6 g/l peptone, 3 g/l yeast extract, 1.5 g/l meat extract, 1 g/l glucose and 15 g/l agar, pH 6.5) supplemented with a solution of M. Iuteus ATCC9341 (1%) and incubated at 32° C. for 18 hours and MIC was measured based on the calibration curve. MOM, MDM and RKM were also tested for comparison. […] Thus a long-pending problem of "low concentration in serum" of 16-membered macrolide antibiotics has been solved. […] Thus this compound is considered as a macrolide derivative showing new pharmacokinetics.
Further, a pharmacokinetics test on the compound (12) of the present invention is carried out in the same manner as described above. Namely, 200 mg/kg of the compound (12) is orally administered to mice and the concentration of this compound in the serum is determined by a bioassay method with the use of M. luteus as a test strain. […] The disadvantage of 16-membered ring macrolide antibiotics, which has been pointed out for a long time, has been thus overcome.

[28] = pharmacokinetics of midecamycins after oral administration to mice; format: in vivo
Source text: First, the present inventors discussed effects of a difference in the structure at the 9-position among midecamycin analogues, from among 16-membered macrolide compounds, on pharmacokinetics. That is to say, midecamycin A1 having a hydroxyl group at the 9-position (Medemycin; MDM) [Journal of Antibiotics, 24 (7), 452 (1971)] and midecamycin A3 having a carbonyl group at the 9-position [ibid., 24 (7), 476 (1971)] were orally administered to animals (mice), followed by observing the pharmacokinetics.

Row | SMILES | MIC [1] | MIC [2] | MIC [3] | MIC [4] | MIC [5] | MIC [8] | MIC [9] | MIC [10] | MIC [11] | MIC [12] | MIC [13] | MIC [14] | MIC [15] | MIC [16] | MIC [17] | MIC [18] | MIC [20] | MIC [21] | MIC [22] | also measured
1 | CCCCCCO[C@H]1[C@H](C)O[C@@H](O[C@H]2[C@H](N(C)C)[C@@H](O)[C@H](O[C@H]3[C@@H](CC=O)C[C@@H](C)[C@@H](O)/C=C/C=C/C[C@@H](C)OC(=O)C[C@@H](OC(=O)CC)[C@@H]3OC)O[C@@H]2C)C[C@@]1(C)OC [(5)] | 1.56 µg/mL (≈ 1.82 µM) | 0.39 µg/mL (≈ 0.456 µM) | 1.56 µg/mL (≈ 1.82 µM) | 0.05 µg/mL (≈ 0.0584 µM) | 3.13 µg/mL (≈ 3.66 µM) | > 100 µg/mL | 1.56 µg/mL (≈ 1.82 µM) | > 100 µg/mL | 0.2 µg/mL (≈ 0.234 µM) | > 100 µg/mL | 1.56 µg/mL (≈ 1.82 µM) | > 100 µg/mL | 1.56 µg/mL (≈ 1.82 µM) | 0.2 µg/mL (≈ 0.234 µM) | 0.2 µg/mL (≈ 0.234 µM) | 0.78 µg/mL (≈ 0.911 µM) | 6.25 µg/mL (≈ 7.3 µM) | 1.56 µg/mL (≈ 1.82 µM) | > 100 µg/mL | MIC ([6]; ATCC9341, 20 h): 0.1 µg/mL (≈ 0.117 µM); MIC ([7]; IP692, 20 h): 0.2 µg/mL (≈ 0.234 µM); MIC [19]: 0.2 µg/mL (≈ 0.234 µM); antimicrobial activities on Gram-positive bacteria and Mycoplasma [23]: strong antimicrobial activities; extent of metabolism [24]: hardly metabolized; degree of loss of the antimicrobial activity in the plasma compared with MOM [25]: lower than that of MOM; duration of antimicrobial activity in rat plasma [25]: extremely long-acting in rat plasma
2 | CCC(=O)O[C@@H]1CC(=O)O[C@H](C)C/C=C/C=C/[C@H](O)[C@H](C)C[C@H](CC=O)[C@H](O[C@@H]2O[C@H](C)[C@@H](O[C@H]3C[C@@](C)(O)[C@@H](OC(=O)CC)[C@H](C)O3)[C@H](N(C)C)[C@H]2O)[C@H]1OC [MDM, midecamycin A1, reference compound] | 0.78 µg/mL (≈ 0.958 µM) | 0.39 µg/mL (≈ 0.479 µM) | 3.13 µg/mL (≈ 3.85 µM) | 0.05 µg/mL (≈ 0.0614 µM) | 3.13 µg/mL (≈ 3.85 µM) | > 100 µg/mL | 1.56 µg/mL (≈ 1.92 µM) | > 100 µg/mL | 0.1 µg/mL (≈ 0.123 µM) | > 100 µg/mL | 1.56 µg/mL (≈ 1.92 µM) | > 100 µg/mL | 0.78 µg/mL (≈ 0.958 µM) | 0.2 µg/mL (≈ 0.246 µM) | 0.39 µg/mL (≈ 0.479 µM) | 0.39 µg/mL (≈ 0.479 µM) | 3.13 µg/mL (≈ 3.85 µM) | 1.56 µg/mL (≈ 1.92 µM) | > 100 µg/mL | MIC ([6]; M. luteus ATCC9341, 37° C., 20 hours): 0.05 µg/mL (≈ 0.0614 µM); MIC ([7]; S. pneumoniae IP692, 37° C., 20 hours): 0.39 µg/mL (≈ 0.479 µM); MIC ([19]; M. pneumoniae FH-P24): 0.1 µg/mL (≈ 0.123 µM); dose excreted at 24 h [26]: < 2%; Cmax [27]: 5200 ng/mL; recovery in urine compared with midecamycin A3 [28]: superior to midecamycin A3; sustained concentration in serum compared with midecamycin A3 [28]: superior to midecamycin A3
